This test deals with T1, Ba/F3 cell EGFR Exon20 ins NPH (Homo sapiens, UniProt P00533, INS773NPH).
T1 construct: expressed in transfected cells; host or cells: Ba/F3
The test can be described thus: Ba/F3 cell proliferation suppression, EGFR Exon20 ins NPH. The conditions noted are these: GI50 class; Ba/F3 cell line with NPH inserted at Exon20 of EGFR; 72 hours. In kind it is cell-based. Here is the method: The following experiment was carried out to evaluate the suppression activity of the compounds according to the present invention against proliferation of Ba/F3 and lung cancer cells which express EGFR mutations.
Of the cancer cell lines expressing the EGFR gene, A549 was cultured after adding 10% FBS (HyClone) to DMEM (Invitrogen), and RPMI-1640 (Invitrogen) with 10% FBS was used for the other cancer cells. For the Ba/F3 cells, RPMI-1640 with 10% FBS and 5 ng/ml IL-3 (R&D Systems) was used. The transduced Ba/F3 cells were cultured by adding 1 ug/ml puromycin (Invitrogen) to the same medium.
24 hours before treatment with the compounds, 3000 to 5000 cells were distributed into each well of a white clear bottom 96 well plate (Corning). The compounds were diluted in dimethylsulfoxide (dilution ratio 3:1; 12 concentrations total) and injected 0.5 ul each for a final concentration of 0.3 nM to 50 um. As for measurement of live cells, 72 hours after treatment with the compounds, a CellTiter-Glo luminescent cell-viability reagent (Promega) was used to store the cells at room temperature for 10 minutes, followed by measurement of luminescence using a reader (SynergyNeo, Biotek). Each test was repeated three times.
The result was calculated as a cell growth ratio (%) compared to a control. The program GraphPad Prism version 5.0 was used to draw the graphs and calculate the GI50 values.

This note sets out measurements from patent publication US12157730B2, “Heteroaryl derivative, method for producing same, and pharmaceutical composition comprising same as effective component” (VORONOI INC., priority 2019, dated 2024).

In the case of “N-(5-((6-((R)-3-(4- chloro-3-fluorophenyl) isoxazolidine-2-yl) pyrimidine-4-yl)amino)- 4-methoxy-2-((R)-3- morpholinopyrolidine- 1-yl)phenyl)acrylamide [compound 419]”, the “Ba/F3 (NPH) Activity” value is “A (GI50 < 50 nM)”.
The result for `C=CC(=O)Nc1cc(Nc2cc(N3OCC[C@@H]3c3cccc(Cl)c3)ncn2)c(OC)cc1N1CCOCC1` [compound 467, N-(5-((6-((R)-3-(3-chlorophenyl)isoxazolidine-2-yl)pyrimidine-4-yl)amino)-4-methoxy-2-morpholinophenyl) acrylamide] reads “A (GI50 < 50 nM)”; that for `C=CC(=O)Nc1cc(Nc2cc(N3OCC[C@@H]3c3ccc(F)c(F)c3)ncn2)c(OC)cc1N1CC[C@H](N2CCOCC2)C1` [compound 579, N-(5-((6-((R)-3-(3,4-difluorophenyl)isoxazolidine-2-yl)pyrimidine-4-yl)amino)-4-methoxy-2-((S)-3-morpholinopyrolidine-1-yl)phenyl)acrylamide], “C (500 nM ≤ GI50 < 5000 nM)”.
The result for `C=CC(=O)Nc1cc(Nc2cc(N3OCC[C@@H]3c3ccc(Cl)cc3F)ncn2)c(OC)cc1N1CCC(N2CCN(C(C)C)CC2)CC1` [compound 408, N-(5-((6-((R)-3-(4-chloro-2-fluorophenyl)isoxazolidine-2-yl)pyrimidine-4-yl)amino)-2-(4-(4-isopropylpiperazine-1-yl)piperidine-1-yl)-4-methoxyphenyl) acrylamide] reads “A (GI50 < 50 nM)”; that for `C=CC(=O)Nc1cc(Nc2cc(N3OCC[C@@H]3c3cccc(C)c3F)ncn2)c(OC)cc1N(C)CCOC` [compound 319, N-(5-((6-((R)-3-(2-fluoro-3-methylphenyl)isoxazolidine-2-yl)pyrimidine-4-yl)amino)-4-methoxy-2-((2-methoxyethyl) (methyl)amino)phenyl)acrylamide], “B (50 nM ≤ GI50 < 500 nM)”; that for `C=CC(=O)Nc1cc(Nc2cc(N3OCC[C@@H]3c3cccc(Cl)c3Cl)ncn2)c(OC)cc1N1CCN(C2CC2)[C@H](C)C1` [compound 564, N-(2-((R)-4-cyclopropyl-3-methylpiperazine-1-yl)-5-((6-((R)-3-(2,3-dichlorophenyl)isoxazolidine-2-yl)pyrimidine-4-yl)amino)-4-methoxyphenyl) acrylamide], “A (GI50 < 50 nM)”.
For the compound `C=CC(=O)Nc1cc(Nc2cc(N3OCC[C@@H]3c3cccc(C)c3F)ncn2)c(OC)cc1N(C)CCN(C)C` [compound 846, N-(2-((2-(dimethylamino)ethyl) (methyl)amino)-5-((6-((R)-3-(2-fluoro-3-methylphenyl)isoxazolidine-2-yl)pyrimidine-4-yl)amino)-4-methoxyphenyl) acrylamide], the “Ba/F3 (NPH) Activity” value is on record as “A (GI50 < 50 nM)”.
Next, `C=CC(=O)Nc1cc(Nc2cc(N3OCC[C@H]3Cc3ccccc3)ncn2)c(OC)cc1N1CCC(N2CCN(C3CC3)CC2)CC1` [compound 956, N-(5-((6-((R)-3-benzylisoxazolidine-2-yl)pyrimidine-4-yl)amino)-2-(4-(4-cyclopropylpiperazine-1-yl)piperidine-1-yl)-4-methoxyphenyl) acrylamide]: “C (500 nM ≤ GI50 < 5000 nM)”; `C=CC(=O)Nc1cc(Nc2cc(N3OCC[C@@H]3Cc3cccc(Cl)c3C)ncn2)c(OC)cc1N1CCC(N2CCN(C3CC3)[C@H](C)C2)CC1` [compound 1027, N-(5-((6-((S)-3-(3-chloro-2-methylbenzyl)isoxazolidine-2-yl)pyrimidine-4-yl)amino)-2-(4-((R)-4-cyclopropyl-3-methylpiperazine-1-yl)piperidine-1-yl)-4-methoxyphenyl) acrylamide]: “A (GI50 < 50 nM)”.
On to `C=CC(=O)Nc1cc(Nc2cc(N3OCC[C@@H]3c3cccc4ccccc34)ncn2)c(OC)cc1N1CCC(N2C[C@@H]3C[C@H]2CO3)CC1` [compound 489, N-(2-(4-((1S,4S)-2-oxa-5-azabicyclo[2.2.1]heptane-5-yl)piperidine-1-yl)-4-methoxy-5-((6-((R)-3-(naphthalene-1-yl)isoxazolidine-2-yl)pyrimidine-4-yl)amino)phenyl)acrylamide], for which the “Ba/F3 (NPH) Activity” value is “A (GI50 < 50 nM)”.
Next, `C=CC(=O)Nc1cc(Nc2cc(N3OCC[C@@H]3Cc3ccccc3)ncn2)c(OC)cc1N1CCN(C2CC2)CC1` [compound 952, N-(5-((6-((S)-3-benzylisoxazolidine-2-yl)pyrimidine-4-yl)amino)-2-(4-cyclopropylpiperazine-1-yl)-4-methoxyphenyl) acrylamide]: “A (GI50 < 50 nM)”; `C=CC(=O)Nc1cc(Nc2cc(N3OCC[C@@H]3c3ccc(Cl)c(F)c3)ncn2)c(OC)cc1N(C)CCOC` [compound 853, N-(5-((6-((R)-3-(4-chloro-3-fluorophenyl)isoxazolidine-2-yl)pyrimidine-4-yl)amino)-4-methoxy-2-((2-methoxyethyl)(methyl)amino)phenyl) acrylamide]: “B (50 nM ≤ GI50 < 500 nM)”; `C=CC(=O)Nc1cc(Nc2cc(N3OCC[C@@H]3Cc3cccc(F)c3Cl)ncn2)c(OC)cc1N1CCN(C2CC2)CC1` [compound 1006, N-(5-((6-((S)-3-(2-chloro-3-fluorobenzyl)isoxazolidine-2-yl)pyrimidine-4-yl)amino)-2-(4-cyclopropylpiperazine-1-yl)-4-methoxyphenyl) acrylamide]: “A (GI50 < 50 nM)”.
The result for `C=CC(=O)Nc1cc(Nc2cc(N3OCC[C@@H]3c3cccc(Cl)c3Cl)ncn2)c(OC)cc1N1CCC(N2CCN(C3CCN(C)CC3)CC2)CC1` [compound 611] reads “B (50 nM ≤ GI50 < 500 nM)”.
Next, `C=CC(=O)Nc1cc(Nc2cc(N3OCC[C@@H]3c3cccc(OC)c3)ncn2)c(OC)cc1N1CCC(N2CCN(C3COC3)CC2)CC1` [Example 81, N-(4-methoxy-5-((6-((R)-3-(3-methoxyphenyl)isoxazolidine-2-yl)pyrimidine-4-yl)amino)-2-(4-(4-(oxetane-3-yl)piperazine-1-yl)piperidine-yl)phenyl) acrylamide]: “B (50 nM ≤ GI50 < 500 nM)”; `C=CC(=O)Nc1cc(Nc2cc(N3OCC[C@@H]3c3ccc(F)cc3F)ncn2)c(OC)cc1N1CCC(N2CCN(CC)CC2)CC1` [compound 424, N-(5-((6-((R)-3-(2,4-difluorophenyl)isoxazolidine-2-yl)pyrimidine-4-yl)amino)-2-(4-(4-ethylpiperazine-1-yl)piperidine-1-yl)-4-methoxyphenyl) acrylamide]: “A (GI50 < 50 nM)”.
On to `C=CC(=O)Nc1cc(Nc2cc(N3OCC[C@@H]3c3cccc(Cl)c3F)ncn2)c(OC)cc1N1CCC(N2C[C@H]3CC[C@@H](C2)O3)CC1` [compound 322, N-(2-(4-((1R,5S)-8-oxa-3-azabicyclo[3.2.1]octan-3-yl)piperidine-1-yl)-5-((6-((R)-3-(3-chloro-2-fluorophenyl)isoxazolidine-2-yl)pyrimidine-4-yl)amino)-4-methoxyphenyl) acrylamide], for which the “Ba/F3 (NPH) Activity” value was “A (GI50 < 50 nM)”.
Next, `C=CC(=O)Nc1cc(Nc2cc(N3OCC[C@@H]3Cc3cccc(Cl)c3C)ncn2)c(OC)cc1N1CCC(N2CCN(C3CC3)[C@@H](C)C2)CC1` [compound 1028, N-(5-((6-((S)-3-(3-chloro-2-methylbenzyl)isoxazolidine-2-yl)pyrimidine-4-yl)amino)-2-(4-((S)-4-cyclopropyl-3-methylpiperazine-1-yl)piperidine-1-yl)-4-methoxyphenyl) acrylamide]: “A (GI50 < 50 nM)”; `C=CC(=O)Nc1cc(Nc2cc(N3OCC[C@@H]3c3cccc(C(F)(F)F)c3)ncn2)c(OC)cc1N1CC[C@H](N2CCOCC2)C1` [compound 507, N-(4-methoxy-2-((S)-3-morpholinopyrolidine-1-yl)-5-((6-((R)-3-(3-(trifluoromethyl)phenyl)isoxazolidine-2-yl)pyrimidine-4-yl)amino)phenyl)acrylamide]: “B (50 nM ≤ GI50 < 500 nM)”; `C=CC(=O)Nc1cc(Nc2cc(N3OCC[C@@H]3c3ccc(C)nc3)ncn2)c(OC)cc1N1CCC(N2CCOCC2)CC1` [Example 45, N-(4-methoxy-5-((6-((R)-3-(6-methylpyridine-3-yl)isoxazolidine-2-yl)pyrimidine-4-yl)amino)-2-(4-morpholinopiperidine-1-yl)phenyl) acrylamide]: “B (50 nM ≤ GI50 < 500 nM)”.
Next, `C=CC(=O)Nc1cc(Nc2cc(N3OCC[C@@H]3Cc3ccccc3)ncn2)c(OC)cc1N1CCN(C2COC2)CC1` [compound 958, N-(5-((6-((S)-3-benzylisoxazolidine-2-yl)pyrimidine-4-yl)amino)-4-methoxy-2-(4-(oxetane-3-yl)piperazine-1-yl)phenyl)acrylamide]: “A (GI50 < 50 nM)”.
On to `C=CC(=O)Nc1cc(Nc2cc(N3OCC[C@@H]3Cc3cccc(F)c3)ncn2)c(OC)cc1N1CCN(C)CC1` [compound 991, N-(5-((6-((S)-3-(3-fluorobenzyl)isoxazolidine-2-yl)pyrimidine-4-yl)amino)-4-methoxy-2-(4-methylpiperazine-1-yl)phenyl)acrylamide], for which the “Ba/F3 (NPH) Activity” value is “A (GI50 < 50 nM)”.
